Source: ChEMBL document CHEMBL1201862, “PubChem BioAssay data set” (2004)
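How tested: cells in 96-well plates exposed to compound for 48 hours at five concentrations. GI50 marks 50% less growth.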 Active and inactive are the calls of the source. No stated cut-off is given here; in the data, active = GI50 up to about 1.1 µM and inactive = higher. Positions of bridges follow the written chain, without caps; N, C: chain ends. Non-standard residues stand in square brackets, D forms with d. Residues, ends and D or L forms follow the SMILES beside them. *: point of attachment. PhAc = O=C(Cc1ccccc1)*

How the values were obtained:
Assay in all cases: growth of human tumour cells (NCI), 48 h
HOP-62 = system: HOP-62
CAKI-1 = system: CAKI-1
NCI-H226 = system: NCI-H226
UACC-62 = system: UACC-62
A498 = system: A498
A549 = system: A549
K562 = system: K562
MDA-MB-231 = system: MDA-MB-231
MDA-N = system: MDA-N
NCI-H460 = system: NCI-H460
COLO 205 = system: COLO 205
OVCAR-3 = system: OVCAR-3
NCI/ADR-RES = system: NCI/ADR-RES
SNB-19 = system: SNB-19
SF-268 = system: SF-268
SK-MEL-28 = system: SK-MEL-28
UACC-257 = system: UACC-257
ACHN = system: ACHN
HCC 2998 = system: HCC 2998
SW-620 = system: SW-620
HT-29 = system: HT-29
TK-10 = system: TK-10
Hs-578T = system: Hs-578T
MCF7 = system: MCF7
PC-3 = system: PC-3
LOX IMVI = system: LOX IMVI
SK-OV-3 = system: SK-OV-3
DU-145 = system: DU-145
U-251 = system: U-251
OVCAR-4 = system: OVCAR-4
IGROV-1 = system: IGROV-1
SF-295 = system: SF-295
UO-31 = system: UO-31
SR = system: SR
KM12 = system: KM12
M14 = system: M14
T47D = system: T47D
SF-539 = system: SF-539
HOP-92 = system: HOP-92
EKVX = system: EKVX
NCI-H23 = system: NCI-H23
SK-MEL-5 = system: SK-MEL-5
MDA-MB-435 = system: MDA-MB-435
SK-MEL-2 = system: SK-MEL-2
OVCAR-5 = system: OVCAR-5
RPMI-8226 = system: RPMI-8226
SNB-75 = system: SNB-75
RXF 393 = system: RXF 393
CCRF-CEM = system: CCRF-CEM
Malme-3M = system: Malme-3M
OVCAR-8 = system: OVCAR-8
HCT-15 = system: HCT-15
MOLT-4 = system: MOLT-4
786-0 = system: 786-0
HL-60 = system: HL-60
HCT-116 = system: HCT-116
SN12C = system: SN12C
NCI-H522 = system: NCI-H522
BT-549 = system: BT-549

Measured: GI50

CN(C)c1ccc(/C=C2\C[C@H]3[C@@H]4CCc5cc(O)ccc5[C@H]4CC[C@]3(C)C2=O)cc1
> 100 µM: HCT-15
inactive: HOP-62 30.5 µM | CAKI-1 > 100 µM | NCI-H226 25.1 µM | UACC-62 17.1 µM | A498 98.2 µM | A549 > 100 µM | K562 > 100 µM | MDA-MB-231 16.5 µM | MDA-N > 100 µM | NCI-H460 > 100 µM | COLO 205 64.7 µM | OVCAR-3 > 100 µM | NCI/ADR-RES > 100 µM | SNB-19 > 100 µM | SF-268 21.3 µM | SK-MEL-28 > 100 µM | UACC-257 > 100 µM | ACHN 56.1 µM | HCC 2998 > 100 µM | SW-620 > 100 µM | HT-29 38.3 µM | TK-10 > 100 µM | Hs-578T 10.5 µM | MCF7 > 100 µM | PC-3 > 100 µM | LOX IMVI > 100 µM | SK-OV-3 > 100 µM | DU-145 > 100 µM | U-251 36 µM | OVCAR-4 > 100 µM | IGROV-1 48 µM | SF-295 32.6 µM | UO-31 > 100 µM | SR > 100 µM | KM12 > 100 µM | M14 > 100 µM | T47D > 100 µM | SF-539 23.4 µM | HOP-92 61.5 µM | EKVX 32.5 µM | NCI-H23 > 100 µM | SK-MEL-5 > 100 µM | MDA-MB-435 > 100 µM | SK-MEL-2 35.6 µM | OVCAR-5 > 100 µM | RPMI-8226 > 100 µM | SNB-75 28.9 µM | RXF 393 48.5 µM | CCRF-CEM > 100 µM | Malme-3M > 100 µM | OVCAR-8 95.1 µM | MOLT-4 > 100 µM

O=C(Cc1ccccc1)N[C@@H]1COC(=O)[C@@H]2CCCN2C(=O)[C@@H]2CCCN2C1=O (PhAc-[dS]-Pro-Pro; ester 1-C)
active: SNB-75 0.0254 µM
inactive: HOP-62 > 100 µM | CAKI-1 > 100 µM | UACC-62 > 100 µM | A498 > 100 µM | A549 > 100 µM | MDA-MB-231 > 100 µM | MDA-N > 100 µM | NCI-H460 > 100 µM | COLO 205 > 100 µM | OVCAR-3 > 100 µM | NCI/ADR-RES > 100 µM | SNB-19 > 100 µM | SF-268 > 100 µM | SK-MEL-28 > 100 µM | UACC-257 > 100 µM | ACHN > 100 µM | HCC 2998 > 100 µM | 786-0 > 100 µM | SW-620 > 100 µM | HT-29 > 100 µM | HL-60 > 100 µM | TK-10 > 100 µM | Hs-578T > 100 µM | MCF7 > 100 µM | PC-3 > 100 µM | HCT-116 > 100 µM | LOX IMVI > 100 µM | SK-OV-3 > 100 µM | DU-145 > 100 µM | OVCAR-4 > 100 µM | IGROV-1 > 100 µM | SF-295 > 100 µM | SR > 100 µM | KM12 > 100 µM | M14 > 100 µM | T47D > 100 µM | SF-539 > 100 µM | HOP-92 > 100 µM | EKVX > 100 µM | NCI-H23 > 100 µM | SK-MEL-5 > 100 µM | MDA-MB-435 > 100 µM | SK-MEL-2 > 100 µM | OVCAR-5 > 100 µM | RXF 393 > 100 µM | CCRF-CEM > 100 µM | Malme-3M > 100 µM | OVCAR-8 > 100 µM | MOLT-4 > 100 µM | SN12C > 100 µM
> 100 µM: HCT-15

CCn1c(=O)c2nc(SC)sc2n(-c2ccccc2)c1=S
inactive: HOP-62 > 100 µM | NCI-H226 41 µM | UACC-62 38 µM | A549 98.9 µM | K562 11.3 µM | MDA-MB-231 > 100 µM | MDA-N 47.2 µM | NCI-H460 37.8 µM | COLO 205 > 10 µM | OVCAR-3 68.5 µM | NCI/ADR-RES 44.5 µM | SNB-19 89.1 µM | SF-268 > 100 µM | SK-MEL-28 > 100 µM | UACC-257 > 100 µM | ACHN 43.9 µM | HCC 2998 > 100 µM | 786-0 > 100 µM | SW-620 93.1 µM | HT-29 47.2 µM | HL-60 3.08 µM | TK-10 > 100 µM | Hs-578T 40.3 µM | MCF7 76.4 µM | PC-3 30.7 µM | HCT-116 58.7 µM | LOX IMVI 42.5 µM | SK-OV-3 94.6 µM | DU-145 > 100 µM | U-251 > 100 µM | OVCAR-4 > 100 µM | IGROV-1 > 100 µM | SF-295 > 100 µM | UO-31 16.6 µM | SR > 100 µM | KM12 49.9 µM | NCI-H522 79.3 µM | M14 65.3 µM | T47D 55.7 µM | SF-539 69.2 µM | HOP-92 55.5 µM | EKVX > 100 µM | NCI-H23 46.8 µM | SK-MEL-5 39.4 µM | MDA-MB-435 46.7 µM | SK-MEL-2 28.6 µM | OVCAR-5 > 100 µM | RPMI-8226 74.6 µM | SNB-75 91.2 µM | RXF 393 67.3 µM | CCRF-CEM 19.6 µM | Malme-3M > 100 µM | OVCAR-8 68.7 µM | MOLT-4 31.6 µM | SN12C 86.9 µM
79.4 µM: HCT-15

COc1ccccc1N=C(S)Nc1ccccn1
> 100 µM: HCT-15
inactive: HOP-62 63.4 µM | CAKI-1 > 100 µM | NCI-H226 > 100 µM | UACC-62 > 100 µM | A498 > 100 µM | A549 > 100 µM | K562 > 100 µM | MDA-MB-231 > 100 µM | NCI-H460 > 100 µM | COLO 205 > 100 µM | OVCAR-3 > 100 µM | NCI/ADR-RES > 100 µM | SNB-19 73.8 µM | SF-268 45.6 µM | SK-MEL-28 > 100 µM | UACC-257 > 100 µM | BT-549 > 100 µM | 786-0 56.5 µM | SW-620 > 100 µM | HT-29 > 100 µM | HL-60 > 100 µM | TK-10 64.1 µM | Hs-578T 84.7 µM | MCF7 > 100 µM | PC-3 > 100 µM | HCT-116 > 100 µM | LOX IMVI > 100 µM | SK-OV-3 > 100 µM | U-251 58.5 µM | OVCAR-4 > 100 µM | IGROV-1 > 100 µM | SF-295 66.2 µM | UO-31 > 100 µM | SR > 100 µM | KM12 > 100 µM | NCI-H522 43.4 µM | M14 > 100 µM | SF-539 67.9 µM | EKVX 55 µM | SK-MEL-5 > 100 µM | MDA-MB-435 > 100 µM | SK-MEL-2 > 100 µM | OVCAR-5 > 100 µM | RPMI-8226 > 100 µM | SNB-75 36.7 µM | RXF 393 59 µM | CCRF-CEM > 100 µM | Malme-3M > 100 µM | OVCAR-8 99.8 µM | MOLT-4 > 100 µM

O=C(CNc1ccccn1)Nn1cnc2ccc(S(=O)(=O)Nc3ccccn3)cc2c1=O
> 100 µM: HCT-15
inactive: HOP-62 > 100 µM | CAKI-1 > 100 µM | NCI-H226 > 100 µM | UACC-62 > 100 µM | A549 > 100 µM | K562 > 100 µM | MDA-MB-231 > 100 µM | MDA-N > 100 µM | NCI-H460 > 100 µM | COLO 205 > 100 µM | OVCAR-3 > 100 µM | NCI/ADR-RES > 100 µM | SNB-19 > 100 µM | SF-268 > 100 µM | SK-MEL-28 > 100 µM | UACC-257 > 100 µM | ACHN > 100 µM | BT-549 > 100 µM | HCC 2998 > 100 µM | 786-0 > 100 µM | SW-620 > 100 µM | HT-29 > 100 µM | HL-60 > 100 µM | TK-10 > 100 µM | Hs-578T > 100 µM | MCF7 > 100 µM | PC-3 > 100 µM | HCT-116 > 100 µM | LOX IMVI > 100 µM | SK-OV-3 > 100 µM | DU-145 > 100 µM | U-251 > 100 µM | OVCAR-4 > 100 µM | IGROV-1 70.1 µM | SF-295 > 100 µM | UO-31 > 100 µM | SR > 100 µM | KM12 > 100 µM | NCI-H522 > 100 µM | M14 > 100 µM | SF-539 > 100 µM | HOP-92 > 100 µM | EKVX > 100 µM | NCI-H23 > 100 µM | MDA-MB-435 > 100 µM | SK-MEL-2 > 100 µM | OVCAR-5 > 100 µM | RPMI-8226 > 100 µM | SNB-75 > 100 µM | CCRF-CEM > 100 µM | Malme-3M > 100 µM | OVCAR-8 > 100 µM | MOLT-4 > 100 µM | SN12C > 100 µM
